Biological target: CXCR7 (Homo sapiens, UniProt P25106)
Assay: competition of CXCL12-Gaussia luciferase binding to intact cells at […] °C
Format: cell-based

Sequence of CXCR7 (P25106 whole entry): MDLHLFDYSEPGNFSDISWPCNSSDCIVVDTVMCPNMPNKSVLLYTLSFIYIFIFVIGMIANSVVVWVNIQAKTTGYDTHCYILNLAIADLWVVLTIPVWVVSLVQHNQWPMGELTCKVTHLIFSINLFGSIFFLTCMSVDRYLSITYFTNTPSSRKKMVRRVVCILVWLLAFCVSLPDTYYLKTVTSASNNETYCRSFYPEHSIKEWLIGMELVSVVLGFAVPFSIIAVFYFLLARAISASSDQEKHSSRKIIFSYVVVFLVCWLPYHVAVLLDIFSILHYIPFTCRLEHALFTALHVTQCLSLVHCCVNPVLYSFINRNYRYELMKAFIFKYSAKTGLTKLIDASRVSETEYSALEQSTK

Row | Substance | EC50
1 | CCX733 | ~18 nM
2 | CCX754 | ~250 nM

From publication PMC4418468 (BioTechniques, 2009)
